How the values were obtained:
Type in all cases: cell-based, Human
MCF-7 cells [1] = experiment: Synchronization-release assay (serum starvation and release); details: pre-treatment during 2 days serum starvation, release 10% FBS 24 hr
Text: Cyclin D1 is a key modulator of the transition through the G1/S checkpoint and is known to be sensitive to proliferative signals delivered by the mitogens. To evaluate the interplay between the mitogens provided by the serum and LCAHA, we performed a synchronization-release assay on the cells treated with LCAHA. To assess the involvement of cyclin D1 in this interplay, we used MCF-7 (cyclin D1-dependent) and SAOS-2 (cyclin D1-negative) cells. The cells were synchronized in G0/G1 by the removal of fetal bovine serum (FBS) for 2 days of the culture in the presence of LCAHA. After this time, the cells were released by the addition of medium containing 10% FBS for 24 hr (still in the presence of the compound).
Figure S4. The analysis of the progression of MCF-7 and SAOS-2 cells through the cell cycle following serum starvation and release by the addition of serum. Related to […]
For the experiment, cyclin D1-dependent MCF-7 and cyclin D1-negative SAOS-2 cell lines were used.
The cells were synchronized in G0/G1 by the removal of FBS for 2 days of the culture in the presence of LCAHA compound. […] The cells were fixed, stained with PI and analysed for cell cycle distribution with ModFit LT Software. […] The statistical significance was evaluated using t-test: * p<0.05, ** […]

HCT116 p53^wt cells [2] = experiment: Western blot analysis of protein expression
HCT116 p53^wt cells [3] = experiment: Western blot analysis of protein expression; remark: listed apart in the source
Text: (§1) The progression from G1 to S phase relies largely on the expression and activity of D cyclins. To verify whether the observed impairment in cell-cycle progression following LCAHA treatment is associated with D cyclins, we investigated the expression of cyclins D1 and D3 in HCT116 p53^wt and HCT116 p53^−/− cells.

HCT116 p53^−/− cells [4] = experiment: Western blot analysis of protein expression; details: 5 or 20 μM, 48 hr
Text: as §1

[5] = tested on: CCND1 mRNA in HCT116, MCF-7, and U-2 OS; experiment: RT-PCR of CCND1 mRNA; details: 10 μM, 48 hr
Procedure: To characterize the mechanism of cyclin D1 downregulation by LCAHA, we first examined the level of CCND1 mRNA. […] In SAOS-2 cells CCND1 mRNA was not detected.
Total RNA was isolated with Renozol (GenoPlast Biochemicals) according to the manufacturer’s instructions. Five hundred ng of RNA was reverse-transcribed using M-MLV RT (Promega) and oligo-dT primer. RT PCR was performed with the use of GoTaq qPCR Master Mix (Promega) and the following primers: for CCND1 mRNA: […] and […], for GAPDH mRNA: […] and […] ([Yin et al., 2001]). The hybridization step was carried out at 60°C and the program involved 30 amplification cycles. The products were separated on 1% agarose gel and visualized with ChemiDoc MP system.

HCT116 p53^wt cells [6] = experiment: Caspase 3/7 activity (Caspase-Glo 3/7)
Procedure: To evaluate whether the observed effects are accompanied by the induction of apoptosis, we examined the activation of caspases 3 and 7 in HCT116 p53^wt cells.
The cells were plated on the 96-well white, flat bottom plates (Falcon) and treated with DMSO, LCAHA or Staurosporine. For the detection of caspase activity Caspase-Glo 3/7 Assay System was used (Promega) according to the manufacturer’s instructions.

SAOS-2 cells [7] = experiment: Colony formation assay; details: 5 μM for 5 days
Procedure: (§2) […]. […] […]. In addition a colony-forming assay was performed on cyclin D1-addicted MCF-7 cells and cyclin D1-negative SAOS-2 cells. […].
(§3) One thousand of the cells was then seeded on 6-well plates and cultured for 2-4 weeks until the generation of well-visible clones. The plates were stained with crystal violet, imaged with the ChemiDoc MP system and analyzed using the ImageJ software ([Schneider et al., 2012]) and ‘Analyze particles’ tool. The surviving fraction (SF) was calculated using the equation: SF = (PE of treated sample / PE of control) * 100%, where PE (plating efficiency) = Ncolonies / Ncells plated.

MCF-7 cells [8] = experiment: Colony formation assay; details: 5 μM for 5 days
Procedure: as §2, §3

U-2 OS cells [9] = experiment: Western blot analysis of cyclin D1 expression; details: 10 μM, 48 hr
U-2 OS cells [10] = experiment: MTT assay, 6 days
Procedure: (§4) In addition a colony-forming assay was performed on cyclin D1-addicted MCF-7 cells and cyclin D1-negative SAOS-2 cells.
(§5) For MTT assay, the cells were seeded on 96-well transparent plates and treated the next day with the compounds or DMSO for 6 days. Thiazolyl Blue Tetrazolium Bromide (MTT, Sigma Aldrich) was added for 60 minutes to a final concentration of […]. The medium was removed and MTT crystals were dissolved in isopropanol supplemented with 40 mM HCl. The absorbance was measured with Infinite 200 microplate reader (Tecan Group Ltd.) at 570 nm with the reference wavelength 650 nm for background subtraction.

SAOS-2 cells [11] = experiment: MTT assay, 6 days
Procedure: as §4, §5

MCF-7 cells [12] = experiment: MTT assay, 6 days
Procedure: as §4, §5

HCT116 p53^−/− cells [13] = experiment: Cell cycle analysis (PI / BrdU, flow cytometry); details: 5 or 10 μM, 48 hr
Procedure: Low concentrations of LCAHA inhibit the growth of HCT116 cells without affecting their survival. To investigate this effect, we analyzed the cell-cycle distribution. Cells treated for 48 hr with LCAHA or DMSO were pulse-labeled with BrdU for 1 hr and stained with fluorescein isothiocyanate (FITC)-anti-bromodeoxyuridine (BrdU) antibody and propidium iodide (PI).
The cells were treated with DMSO or LCAHA for 48 hours and pulse-labelled with 10 μM bromodeoxyuridine (BrdU, Sigma Aldrich) for the last hour of the treatment. After that, the cells were either harvested by trypsinization and fixed with 96% ethanol, or cultured for additional 3-9 hours in the absence of BrdU before harvesting and fixation. The cells were stained with PI and FITC-conjugated anti-BrdU antibody (BioLegend, cat. 364104) and analysed with Fortessa flow cytometer (Becton Dickinson). Cell cycle distribution was analysed using ModFit LT Software (Verity Software House).

C[C@H](CCC(=O)NO)[C@H]1CC[C@H]2[C@@H]3CC[C@@H]4C[C@H](O)CC[C@]4(C)[C@H]3CC[C@]12C [LCAHA, N-(hydroxy)-3-hydroxylithocholanamide]
entry into the S phase after serum release (MCF-7 cells [1]): significantly inhibited the entry into the S phase
phosphorylation of Akt (S473) (HCT116 p53^wt cells [2]; 5 μM, 24–32 hr): increase of the phosphorylation
phosphorylation of GSK-3β (S9) (HCT116 p53^wt cells [2]; 5 μM, 24–32 hr): increase of the phosphorylation
expression of p27 (HCT116 p53^wt cells [2]; 5 or 20 μM, 48 hr, HCT116 cells (Figures 2A and S3A)): not altered
expression of proteins encoded by p53-target genes (MDM2 and p21) and of p53 (HCT116 p53^wt cells [2]; 24 or 48 hr): did not induce
cyclin D1 level over time course (HCT116 p53^wt cells [3]; 5 μM, 24, 26, 28, 30, or 32 hr): significant decrease in cyclin D1
cyclin D1 expression (HCT116 p53^wt cells [3]; 5 or 20 μM, 48 hr): significant, dose-dependent decrease
cyclin D3 expression (HCT116 p53^wt cells [3]; 5 or 20 μM, 48 hr): no effect
cyclin D1 expression (HCT116 p53^−/− cells [4]): significant, dose-dependent decrease
cyclin D3 expression (HCT116 p53^−/− cells [4]): no effect
level of CCND1 mRNA [5]: did not change
caspase 3 and 7 activity (HCT116 p53^wt cells [6]; 10 μM): increase of caspase activity significant
caspase 3 and 7 activity (HCT116 p53^wt cells [6]; 1 or 5 μM, 48 or 72 hr): weak and non-significant increase
clonogenic potential (SAOS-2 cells [7]): did not affect the clonogenic potential
clonogenic potential (surviving fraction and mean colony size) (MCF-7 cells [8]): significant decrease of the clonogenic potential
cyclin D1 expression (U-2 OS cells [9]): significant decrease of cyclin D1 expression
viability (MTT) (U-2 OS cells [10]): biphasic, dose-dependent decrease of viability
viability (MTT) (SAOS-2 cells [11]): viability decrease was observed only at high concentrations
viability (MTT) (MCF-7 cells [12]): biphasic, dose-dependent decrease of viability
G0/G1 arrest (HCT116 p53^−/− cells [13]): mild, but significant G0/G1 arrest

— PMC5404848 (Cell Chemical Biology, 2017)
